From US7528259B2, “Derivatives of 4,5,6,7-tetrabromobenzimidazole and method of their preparation” (Selvita SP. Z O. O., priority 2004, dated 2009)
pKi: −log10 of the molar value. Like-named read-outs stand apart in the source and are kept apart here. Blank lines part the entries; values can stand above or below the molecule they belong to.

What was measured:
CK2 = biological target: T1, CK2 (Rattus norvegicus, UniProt P19139); assay: CK2 phosphorylation assay, kinetic determination of inhibition constant; assay type: biochemical
T1 construct: Native CK1 (nCK1) and CK2 (nCK2) were purified from rat liver; from tissue; host or cells: rat liver
T1 sequence (P19139 whole entry): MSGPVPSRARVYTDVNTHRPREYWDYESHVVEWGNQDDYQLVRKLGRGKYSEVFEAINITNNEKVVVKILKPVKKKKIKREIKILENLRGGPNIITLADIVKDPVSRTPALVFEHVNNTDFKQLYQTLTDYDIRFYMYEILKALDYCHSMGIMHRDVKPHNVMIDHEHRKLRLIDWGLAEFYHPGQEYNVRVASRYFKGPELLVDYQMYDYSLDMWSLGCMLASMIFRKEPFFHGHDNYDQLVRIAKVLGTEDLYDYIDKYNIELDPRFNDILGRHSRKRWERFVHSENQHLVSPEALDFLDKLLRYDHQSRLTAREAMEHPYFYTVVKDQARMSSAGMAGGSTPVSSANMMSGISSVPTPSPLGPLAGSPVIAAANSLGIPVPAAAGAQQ
T1 sequence (P67874 2-215 partner limits assumed): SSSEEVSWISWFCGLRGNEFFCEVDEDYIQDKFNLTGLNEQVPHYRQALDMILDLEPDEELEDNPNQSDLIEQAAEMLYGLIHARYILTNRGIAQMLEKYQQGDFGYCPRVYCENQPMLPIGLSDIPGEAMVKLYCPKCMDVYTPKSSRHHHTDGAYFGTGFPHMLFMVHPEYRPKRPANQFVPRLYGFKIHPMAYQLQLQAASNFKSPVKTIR

CK1 (casein kinase 1) = assay: Enzymatic activity of kinases, residual activity with inhibitor; assay type: biochemical, rat; conditions: inhibitor at 10 μM; percentage activity without an inhibitor
Procedure: (§1) Tests of enzymatic activity of kinases were carried out using methodology described by Sarno et al. 2003 and are summarized in Table 1. […] Native CK1 (nCK1) and CK2 (nCK2) were purified from rat liver (Meggio et al., 1981); Golgi CK (G-CK), purified from rat lactating mammary gland, was provided by Dr. A. M. Brunati (Padova, Italy). Protein tyrosine kinases Lyn, c-Fgr, Syk (also termed TPK-IIB) were purified from rat spleen as previously referenced (Sarno et al., 2003). Human recombinant α and β subunits of CK2 were expressed in E. coli and the holoenzyme was reconstituted and purified as previously described (Sarno et al., 1996). The […] and […] CK2 mutants were obtained as described previously (Sarno et al., 2003). […] double mutant was obtained with the “QuikChange-SiteDirected Mutagenesis” kit (Stratagene), using human […] cDNA α inserted in pT7-7 vector as template and two synthetic oligonucleotide primers, [NT] and [NT], each complementary to opposite strands of template. Expression and purification of the mutant was performed as previously described (Sarno et al., 2003).

[1] = test system: G-CK (casein kinase from Golgi apparatus); assay: as above; assay type: biochemical, rat; conditions: inhibitor at 10 μM; percentage activity without an inhibitor
Procedure: as §1

DYRK1a = DYRK1a (Homo sapiens, UniProt Q13627); assay: as above; assay type: biochemical; conditions: inhibitor at 10 μM; percentage activity without an inhibitor
Procedure: Tests of enzymatic activity of kinases were carried out using methodology described by Sarno et al. 2003 and are summarized in Table 1. The residual activity was determined by incubation in the presence of inhibitor at a concentration of 10 μM and expressed as percentage activity without an inhibitor.
Saccharomyces cerevisiae piD261 was provided by Dr. S. Facchin (Padova, Italy). The source of all the other protein kinases used for specificity assays is either described or referenced by Davies et al. (2000).

[2] = test system: human leukemia Jurkat T cells; assay: Cytotoxic effect, MTT viability assay; assay type: cell-based; conditions: 24 hours
Procedure: Leukemia Jurkat cells were incubated for 24 hours in a medium of increasing concentration of 4,5,6,7-tetrabromobenzimidazole (TBB) or 2-dimethylamino-4,5,6,7-tetrabromobenzimidazole (K25). The cytotoxic effect was assessed by means of staining with a use of MTT, (3-(4,5-dimethylthiazol-2-yl)-3,5-diphenyltriazolium bromide, reagent. Control cells were incubated in a medium with added solvent (DMSO, 05% v/v). The results were calculated as mean values of three experiments. The resulting cytotoxic effect of 4,5,6,7-tetrabromo-2-dimethylaminobenzimidazole on human leukemia Jurkat T cells is presented in FIG. 1. […].
The human leukemia Jurkat T-cell line was maintained in RPMI-1640, supplemented with 10% (v/v) fetal calf serum, 2 mM L-glutamine, 100 units/ml penicillin and 100 ug/ml streptomycin. For the treatment, cells were suspended at a density of 10^6 cells/ml in a medium containing 1% (v/v) fetal calf serum, then incubated at 37° C., in the presence of the compounds at the indicated concentrations. Control cells were treated with equal amounts of solvent inhibitor was solved. […]
(§2) Cell viability was assessed by means of 3-(4,5-dimethylthiazol-2-yl)-3,5-diphenyltriazolium bromide (MTT) reagent, while caspase activation was followed by Western blot monitoring of PARP and HS1 protein degradation, as previously described (Ruzzene et al., 2002).

[3] = test system: human leukemia Jurkat cells; assay: Caspase activation by Western blot of PARP and HS1 degradation; assay type: cell-based; conditions: 14 hours, 5 or 10 uM, FIG. 2
Procedure: Leukemia Jurkat cells were incubated for 14 hours without the addition of 2-dimethylamino-4,5,6,7-tetrabromobenzimidazole (C), and in a medium including 5 or 10 uM of 2-dimethylamino-4,5,6,7-tetrabromobenzimidazole and 50 ng/mL of antiFas (aF), a control substance to follow the apoptosis process.
The human leukemia Jurkat T-cell line was maintained in RPMI-1640, supplemented with 10% (v/v) fetal calf serum, 2 mM L-glutamine, 100 units/ml penicillin and 100 ug/ml streptomycin. For the treatment, cells were suspended at a density of 10^6 cells/ml in a medium containing 1% (v/v) fetal calf serum, then incubated at 37° C., in the presence of the compounds at the indicated concentrations. Control cells were treated with equal amounts of solvent inhibitor was solved. At the end of incubations, cells were lysed by the addition of hypoosmotic buffer, as previously described (Sarno et al., 2003).
as §2

isolated mitochondria = assay: Depolarization of isolated mitochondria
[4] = CK2, competitive with respect of ATP, read-out: Inhibition constant Ki

pKi (CK2): 6.80
melting point: > 250 °C (dec.)
SMILES: CN(C)CCNc1nc2c(Br)c(Br)c(Br)c(Br)c2[nH]1 [2-(2-Dimethylaminoethylamino)-4,5,6,7-tetrabromo-1H-benzimidazole]

pKi (CK2; [4]): 6.85
melting point: 258 to 260 °C
SMILES: CC(O)CNc1nc2c(Br)c(Br)c(Br)c(Br)c2[nH]1 (stereo not drawn) [2-(2-hydroxypropylamino)-4,5,6,7-tetrabromo-1H-benzimidazole]

pKi (CK2; [4]): 6.89
melting point: 216 to 218 °C
SMILES: OCCNc1nc2c(Br)c(Br)c(Br)c(Br)c2[nH]1 [2-Ethanolamine-4,5,6,7-tetrabromo-1H-benzimidazole]

pKi (CK2; [4]): 7.22
melting point: 288 to 290 °C (dec.)
SMILES: CC(C)Nc1nc2c(Br)c(Br)c(Br)c(Br)c2[nH]1 [2-Isopropylamine-4,5,6,7-tetrabromo-1H-benzimidazole]

pKi (CK2; [4]): 7.05
melting point: 283 to 285 °C
SMILES: CNc1nc2c(Br)c(Br)c(Br)c(Br)c2[nH]1 [2-Methylamino-4,5,6,7-tetrabromo-1H-benzimidazole]

pKi (CK2; [4]): 7.05
SMILES: Nc1nc2c(Br)c(Br)c(Br)c(Br)c2[nH]1 [2-amino-4,5,6,7-tetrabromobenzimidazole, reference compound]

SMILES: CN(C)c1nc2c(Br)c(Br)c(Br)c(Br)c2[nH]1 [Example K25, 2-Dimethylamino-4,5,6,7-tetrabromo-1H-benzimidazole]
Residual activity of CK1 (CK1 (casein kinase 1)): 87 percentage
Residual activity of G-CK [1]: 92 percentage
Residual activity of DYRK1a (DYRK1a): 2 percentage
Cytotoxic effect compared with TBB ([2]; FIG. 1): several times higher
Cytotoxic effect compared with TBB ([2]; FIG. 1, listed as 2-dimethylamino-4,5,6,7-tetrabromobenzimidazole): several times more active
Activation of caspase (degradation of HS1 and PARP) [3]: Activation of caspase
Depolarization of isolated mitochondria (isolated mitochondria): does not cause depolarization

Residual activity of CK1 (CK1 (casein kinase 1)): 91 percentage
Residual activity of G-CK [1]: 95 percentage
Residual activity of DYRK1a (DYRK1a): 22 percentage
SMILES: Brc1c(Br)c(Br)c2[nH]nnc2c1Br [TBB, 4,5,6,7-tetrabromobenzotriazole, reference compound]
